In PubChem BioAssay AID1259333 (Broad Institute, 2017):
The source made the active and inactive calls. How the calls were made is not given here; tested in parental BL2 cells.

Test: loss of cell viability by ATP content – CellTiter-Glo, cytotoxicity control, dose response (AID 1259333);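 further: 0% = vehicle neutral controls and -100% = reference inhibitor positive controls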
Details: cytotoxicity, CellTiter-Glo ATP luminescence; at 3.5 µM (top of the series)
In the case of `CC(C)(C)c1cc(/C=C(\C#N)C(N)=S)cc(C(C)(C)C)c1O`, the activity change, negative = cytotoxicity is reported as 26.8% (inactive).
With `C[C@]12CC[C@H](O)C[C@H]1CC[C@@H]1[C@@H]2CC[C@]2(C)[C@@H](c3ccc(=O)oc3)CC[C@]12O` the activity change, negative = cytotoxicity was 25.8% (inactive).
With `C[C@@H]1CN([C@@H](C)CO)C(=O)Cc2cc(NS(=O)(=O)c3ccccc3)ccc2O[C@H]1CN(C)Cc1ccc(Cl)c(Cl)c1` the activity change, negative = cytotoxicity was 24.1% (inactive).
In the case of `COc1cccc(S(=O)(=O)N(C)C[C@H]2OCc3ccccc3-c3c(n(C)c4ccccc34)C(=O)N([C@@H](C)CO)C[C@H]2C)c1`, the activity change, negative = cytotoxicity is reported as 15.7% (inactive).

Same assay, conditions: cytotoxicity, CellTiter-Glo ATP luminescence; at 10 µM (top of the series)
With `C[C@H]1CN([C@@H](C)CO)C(=O)c2c(c3ccccc3n2C)-c2ccccc2CO[C@H]1CN(C)C(=O)Nc1ccccc1C(F)(F)F` the activity change, negative = cytotoxicity was -4.57% (inactive).
For `O=S(c1ccccc1O)S(=O)c1ccccc1O` (stereo unspecified), the activity change, negative = cytotoxicity was 40.7% (inactive).
For `c1ccc(-c2ccc(-c3ccccn3)nn2)nc1`, the activity change, negative = cytotoxicity was -10.2% (inactive).
In the case of `C[C@@H]1CN([C@@H](C)CO)C(=O)c2c(c3ccccc3n2C)-c2ccccc2CO[C@H]1CN(C)Cc1cccc(C(=O)Nc2ccccc2N)c1`, the activity change, negative = cytotoxicity is reported as 26.3% (inactive).
With `Cc1cccc(-c2ccc(C3[C@@H]4CN(C(=O)Nc5ccc(C(F)(F)F)cc5)C[C@H]3N4)cc2)c1` (stereo partly specified) the activity change, negative = cytotoxicity was 26.3% (inactive).
In the case of `CCN1C(=O)C(CC(=O)Nc2ccc(OC)cc2)N(CCc2ccc(F)cc2)C1=S` (stereo unspecified), the activity change, negative = cytotoxicity is reported as 24.7% (inactive).
With `O=S(=O)(CCSc1ccccn1)c1nc2ccccc2s1` the activity change, negative = cytotoxicity was 55.1% (inactive).
For `Cc1cc(C(=O)COC(=O)c2cccn2C)c(C)n1Cc1ccco1`, the activity change, negative = cytotoxicity was 23.8% (inactive).
With `Cc1ccc(-c2nn3c(C)nnc3c3ccccc23)cc1S(=O)(=O)NCc1ccccc1` the activity change, negative = cytotoxicity was 16.1% (inactive).
For `COc1ccc(C#Cc2ccc([C@H]3[C@H]4CN(C(=O)c5ccncc5)CCCCN4[C@H]3CO)cc2)cc1`, the activity change, negative = cytotoxicity was 30.7% (inactive).
In the case of `O=C1C=CC(=O)C2=C1C1c3ccccc3C2c2ccccc21`, the activity change, negative = cytotoxicity is reported as 90.3% (inactive).
With `C[C@H](CO)N1C[C@H](C)[C@H](CN(C)Cc2ccc(Oc3ccccc3)cc2)OCc2ccccc2-c2ccccc2C1=O` the activity change, negative = cytotoxicity was 15.4% (inactive).
In the case of `N#C[C@H]1[C@H](c2ccc(C#Cc3ccc(F)cc3)cc2)[C@@H](CO)N1C(=O)C1CCC1`, the activity change, negative = cytotoxicity is reported as -4.11% (inactive).
In the case of `CCC(=O)NC(c1ccccc1OC)c1ccc2cccnc2c1O` (stereo unspecified), the activity change, negative = cytotoxicity is reported as 40.2% (inactive).
With `Oc1ccc(Cc2ccccc2)c2cccnc12` the activity change, negative = cytotoxicity was 41.6% (inactive).
With `CCc1cc2c(COC(=O)c3cc(S(=O)(=O)N4CCOCC4)ccc3F)cc(=O)oc2cc1O` the activity change, negative = cytotoxicity was 64% (inactive).
In the case of `Oc1cc2c(cc1C(c1ccc(Br)cc1)N1CCCC1)OCO2` (stereo unspecified), the activity change, negative = cytotoxicity is reported as 7.99% (inactive).
In the case of `C[C@H]1CCCC(=O)CCC/C=C/c2cc(O)cc(O)c2C(=O)O1`, the activity change, negative = cytotoxicity is reported as 29.3% (inactive).
With `O=C(C1CCCC1)N1CC(=O)N2[C@@H](CO)[C@@H](c3ccc(C#CCc4ccccc4)cc3)[C@@H]2C1` the activity change, negative = cytotoxicity was 53.6% (inactive).
In the case of `Cc1ccccc1C(=O)N1CCC(C(=O)Nc2nc3ccc(F)cc3s2)CC1`, the activity change, negative = cytotoxicity is reported as 18.4% (inactive).
For `N#C[C@H]1[C@@H](c2ccccc2-c2ccccc2)[C@@H](CO)N1C(=O)NC1CCCC1`, the activity change, negative = cytotoxicity was -17.1% (inactive).
In the case of `CC(=O)Nc1nc2nc(-c3ccccc3)cc(-c3ccccc3)n2n1`, the activity change, negative = cytotoxicity is reported as 47.9% (inactive).
With `O=C(Cc1ccccc1)N1CC[C@@H]2[C@H]1c1cc(-c3cccc(F)c3)ccc1N[C@@H]2CO` the activity change, negative = cytotoxicity was 8.92% (inactive).
In the case of `Oc1c(Cl)cc(Cl)cc1Sc1cc(Cl)cc(Cl)c1O`, the activity change, negative = cytotoxicity is reported as 11% (inactive).
In the case of `Cc1nc(C)c(C(=O)Nc2ncc([N+](=O)[O-])s2)o1`, the activity change, negative = cytotoxicity is reported as 29.6% (inactive).
In the case of `CSC1SCC2C(=O)N(C)C(C(C)C)C(=O)OCC(NC(=O)c3cnc4ccccc4n3)C(=O)NC(C)C(=O)N(C)C1C(=O)N(C)C(C(C)C)C(=O)OCC(NC(=O)c1cnc3ccccc3n1)C(=O)NC(C)C(=O)N2C` (stereo unspecified), the activity change, negative = cytotoxicity is reported as 62.7% (inactive).
With `COC1=CC(=O)c2c(ccc3ncnc(N)c23)C1=O` the activity change, negative = cytotoxicity was 44.6% (inactive).
For `CCc1cnc(N2[C@H](C#N)[C@H](c3ccc(C#CCC4CCCC4)cc3)[C@@H]2CO)s1`, the activity change, negative = cytotoxicity was 56.6% (inactive).
With `O=C(/C=C/c1cccs1)c1ccc(N2CCOCC2)cc1` the activity change, negative = cytotoxicity was 23.6% (inactive).
In the case of `Cc1ccc(OC(=O)N(C)C[C@@H]2OCc3ccccc3-c3c(n(C)c4ccccc34)C(=O)N([C@@H](C)CO)C[C@H]2C)cc1`, the activity change, negative = cytotoxicity is reported as 5.02% (inactive).
In the case of `CCCNC(=O)N1[C@H](CO)[C@H](c2ccc(-c3cccc(OC)c3)cc2)[C@@H]1C#N`, the activity change, negative = cytotoxicity is reported as 27% (inactive).
In the case of `N#C[C@H]1[C@H](c2ccc(C#Cc3ccccc3F)cc2)[C@H](CO)N1C(=O)C1CC1`, the activity change, negative = cytotoxicity is reported as 91.9% (inactive).
